This test is described as follows: Case study 1, inflammatory bowel disease (ulcerative colitis). It counts as in vivo, human. The settings on record: same patient, used previously. The text has this:
A patient with diagnosed ulcerative colitis (one of 2 major forms of IBD) is cited as a case study on the effects of the GOS product, prepared according to Example 1 The patient had suffered from ulcerative colitis for 5 years and was free of medication prior to, and during, the test period. […] The patient had difficulty in digesting foods, was on a standard diet, suffered from nausea, diarrhoea and abdominal pain. The latter was left side large intestine, which correlated with the diagnosis of colitis based inflammation of the descending colon. A total daily GOS dose of 7 g/d (in 2 separate doses) was ingested. Within 4 days of intake, symptoms began to improve. The patient was better able to digest their diet, gut pains began to recede and nausea was reduced. […] The only change to the diet was the addition of GOS. Six weeks later, this effect has been maintained.

Take `O=C(O)c1cc(/N=N/c2ccc(S(=O)(=O)Nc3ccccn3)cc2)ccc1O` [sulphasalazine]: the “effect of earlier treatment on ulcerative colitis” value was “no positive effect”.

(Values after patent US7883874B2, “Galactooligosaccharide composition and the preparation thereof” (Clasado Inc., priority 2003, dated 2011).)
